From BigSolDB 2.1

Compound: Brc1c(Br)c(Br)c(Oc2c(Br)c(Br)c(Br)c(Br)c2Br)c(Br)c1Br
- solubility (mole fraction) (in THF, 283 K): 0.00449
- solubility (mole fraction) (in THF, 293 K): 0.00524
- solubility (mole fraction) (in THF, 303 K): 0.00607
- solubility (mole fraction) (in THF, 313 K): 0.00695
- solubility (mole fraction) (in THF, 323 K): 0.0085
- solubility (mole fraction) (in acetone, 283 K): 4.4e-05
- solubility (mole fraction) (in acetone, 293 K): 6e-05
- solubility (mole fraction) (in acetone, 303 K): 9.1e-05
- solubility (mole fraction) (in acetone, 313 K): 0.000119
- solubility (mole fraction) (in acetone, 323 K): 0.000145
- solubility (mole fraction) (in ethyl acetate, 283 K): 0.000133
- solubility (mole fraction) (in ethyl acetate, 293 K): 0.000173
- solubility (mole fraction) (in ethyl acetate, 303 K): 0.000252
- solubility (mole fraction) (in ethyl acetate, 313 K): 0.000346
- solubility (mole fraction) (in ethyl acetate, 323 K): 0.000455
- solubility (mole fraction) (in limonene, 283 K): 0.00162
- solubility (mole fraction) (in limonene, 293 K): 0.00242
- solubility (mole fraction) (in limonene, 303 K): 0.00282
- solubility (mole fraction) (in limonene, 313 K): 0.00397
- solubility (mole fraction) (in limonene, 323 K): 0.00485
- solubility (mole fraction) (in toluene, 283 K): 0.00274
- solubility (mole fraction) (in toluene, 293 K): 0.00362
- solubility (mole fraction) (in toluene, 303 K): 0.0052
- solubility (mole fraction) (in toluene, 313 K): 0.00651
- solubility (mole fraction) (in toluene, 323 K): 0.00771
